Experiments:
[1] = target: Non-receptor tyrosine-protein kinase TYK2 (Homo sapiens) (UniProt P29597); conditions: Compound concentration 1000.0 nM
[2] = target: Serine/threonine-protein kinase 32A (Homo sapiens) (UniProt Q8WU08); conditions: Compound concentration 1000.0 nM
[3] = target: Sigma intracellular receptor 2 (Homo sapiens) (UniProt Q5BJF2); conditions: Compound concentration 10.0 uM
[4] = target: Serine/threonine-protein kinase mTOR (Homo sapiens) (UniProt P42345); conditions: Compound concentration 1000.0 nM
[5] = target: Activin receptor type-1 (Homo sapiens) (UniProt Q04771); conditions: Compound concentration 1000.0 nM
[6] = target: Phosphatidylinositol 4,5-bisphosphate 3-kinase catalytic subunit alpha isoform (Homo sapiens) (UniProt P42336); conditions: Compound concentration 1000.0 nM
Phosphatidylinositol 4,5-bisphosphate 3-kinase catalytic subunit alpha isoform (Homo sapiens), sequence (P42336 whole entry, canonical isoform): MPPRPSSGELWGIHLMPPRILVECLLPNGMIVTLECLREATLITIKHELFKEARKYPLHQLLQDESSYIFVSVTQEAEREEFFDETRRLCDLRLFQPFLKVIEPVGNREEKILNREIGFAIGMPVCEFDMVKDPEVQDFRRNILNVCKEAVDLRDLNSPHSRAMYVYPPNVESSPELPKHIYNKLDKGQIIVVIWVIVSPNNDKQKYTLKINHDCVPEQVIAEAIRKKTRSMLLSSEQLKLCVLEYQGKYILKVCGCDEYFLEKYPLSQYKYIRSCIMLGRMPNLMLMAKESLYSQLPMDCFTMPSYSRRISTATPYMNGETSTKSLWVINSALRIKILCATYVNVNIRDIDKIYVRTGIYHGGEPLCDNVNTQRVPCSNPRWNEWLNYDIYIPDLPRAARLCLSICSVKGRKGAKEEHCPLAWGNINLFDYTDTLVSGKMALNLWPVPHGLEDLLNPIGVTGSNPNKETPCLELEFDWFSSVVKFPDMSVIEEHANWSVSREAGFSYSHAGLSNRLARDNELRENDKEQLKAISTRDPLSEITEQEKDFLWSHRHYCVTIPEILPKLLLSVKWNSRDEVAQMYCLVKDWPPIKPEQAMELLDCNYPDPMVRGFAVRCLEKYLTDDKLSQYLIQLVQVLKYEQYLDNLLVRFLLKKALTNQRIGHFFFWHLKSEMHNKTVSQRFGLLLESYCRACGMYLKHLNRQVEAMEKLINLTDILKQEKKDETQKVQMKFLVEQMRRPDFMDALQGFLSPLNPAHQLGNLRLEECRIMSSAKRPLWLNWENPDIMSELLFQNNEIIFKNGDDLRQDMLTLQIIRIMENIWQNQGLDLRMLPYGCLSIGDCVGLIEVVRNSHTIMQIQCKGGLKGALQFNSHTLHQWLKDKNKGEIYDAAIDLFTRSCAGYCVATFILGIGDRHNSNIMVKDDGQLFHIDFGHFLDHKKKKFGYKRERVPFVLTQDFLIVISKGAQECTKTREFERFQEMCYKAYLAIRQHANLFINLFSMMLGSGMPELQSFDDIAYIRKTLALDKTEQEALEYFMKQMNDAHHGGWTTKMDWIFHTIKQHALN

[7] = target: 5-hydroxytryptamine receptor 2C (Homo sapiens) (UniProt P28335); conditions: Compound concentration 10.0 uM
[8] = target: Inhibitor of nuclear factor kappa-B kinase subunit beta (Homo sapiens) (UniProt O14920); conditions: Compound concentration 1000.0 nM
[9] = target: 1-phosphatidylinositol 3-phosphate 5-kinase (Homo sapiens) (UniProt Q9Y2I7); conditions: Compound concentration 1000.0 nM
[10] = target: Dual specificity mitogen-activated protein kinase kinase 7 (Homo sapiens) (UniProt O14733); conditions: Compound concentration 1000.0 nM
[11] = target: Phosphorylase b kinase regulatory subunit alpha, liver isoform (Homo sapiens) (UniProt P46019); conditions: Compound concentration 1000.0 nM
[12] = target: Dual specificity testis-specific protein kinase 1 (Homo sapiens) (UniProt Q15569); conditions: Compound concentration 1000.0 nM
[13] = tested on: Tyrosine-protein kinase ABL1 (Homo sapiens), P00519 [T315I]; conditions: Compound concentration 1000.0 nM
[14] = tested on: Phosphatidylinositol 4,5-bisphosphate 3-kinase catalytic subunit alpha isoform (Homo sapiens), P42336 [H1047L]; conditions: Compound concentration 1000.0 nM
Phosphatidylinositol 4,5-bisphosphate 3-kinase catalytic subunit alpha isoform (Homo sapiens), P42336 [H1047L], sequence (P42336 whole entry H1047L, canonical isoform): as the sequence (P42336 whole entry, canonical isoform) above, with H1047L counted along it

[15] = target: Homeodomain-interacting protein kinase 2 (Homo sapiens) (UniProt Q9H2X6); conditions: Compound concentration 1000.0 nM
Homeodomain-interacting protein kinase 2 (Homo sapiens), sequence (Q9H2X6 whole entry, looked up): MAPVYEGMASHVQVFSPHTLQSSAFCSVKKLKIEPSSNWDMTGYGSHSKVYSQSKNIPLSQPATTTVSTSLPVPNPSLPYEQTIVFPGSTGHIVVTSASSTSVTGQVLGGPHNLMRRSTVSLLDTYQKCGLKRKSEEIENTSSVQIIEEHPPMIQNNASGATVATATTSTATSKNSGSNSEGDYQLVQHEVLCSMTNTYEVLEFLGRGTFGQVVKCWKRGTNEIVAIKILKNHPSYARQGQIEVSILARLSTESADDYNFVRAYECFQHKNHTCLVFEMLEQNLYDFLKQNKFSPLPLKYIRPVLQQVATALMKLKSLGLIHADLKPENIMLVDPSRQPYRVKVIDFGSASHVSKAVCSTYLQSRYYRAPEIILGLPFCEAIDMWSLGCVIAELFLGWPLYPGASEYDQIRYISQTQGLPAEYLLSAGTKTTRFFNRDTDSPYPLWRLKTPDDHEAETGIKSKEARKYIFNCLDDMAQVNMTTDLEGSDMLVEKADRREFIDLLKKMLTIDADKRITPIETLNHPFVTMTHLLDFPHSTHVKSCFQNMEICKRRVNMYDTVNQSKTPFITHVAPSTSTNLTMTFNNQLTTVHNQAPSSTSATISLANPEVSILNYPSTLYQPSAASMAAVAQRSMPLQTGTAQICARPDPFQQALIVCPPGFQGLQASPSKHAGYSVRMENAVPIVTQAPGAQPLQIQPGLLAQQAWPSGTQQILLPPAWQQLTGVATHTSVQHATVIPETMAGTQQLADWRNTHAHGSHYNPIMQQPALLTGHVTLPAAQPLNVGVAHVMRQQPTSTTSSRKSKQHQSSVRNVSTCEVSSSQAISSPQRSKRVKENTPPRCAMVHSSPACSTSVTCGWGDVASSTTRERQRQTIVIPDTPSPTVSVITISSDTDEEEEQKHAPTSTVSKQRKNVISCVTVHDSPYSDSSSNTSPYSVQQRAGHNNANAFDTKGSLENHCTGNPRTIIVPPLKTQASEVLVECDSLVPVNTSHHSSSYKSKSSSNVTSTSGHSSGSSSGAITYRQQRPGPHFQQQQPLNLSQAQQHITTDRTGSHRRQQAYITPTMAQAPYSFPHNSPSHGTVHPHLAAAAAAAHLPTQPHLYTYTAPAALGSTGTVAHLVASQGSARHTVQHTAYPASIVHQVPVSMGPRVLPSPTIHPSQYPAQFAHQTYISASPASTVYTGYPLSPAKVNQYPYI

[16] = target: Tyrosine-protein kinase JAK3 (Homo sapiens) (UniProt P52333); conditions: Compound concentration 1000.0 nM
[17] = target: NT-3 growth factor receptor (Homo sapiens) (UniProt Q16288); conditions: Compound concentration 1000.0 nM
[18] = target: Serine/threonine-protein kinase PAK 5 (Homo sapiens) (UniProt Q9P286); conditions: Compound concentration 1000.0 nM
[19] = tested on: Epidermal growth factor receptor (Homo sapiens), P00533 [UNDEFINED MUTATION]; conditions: Compound concentration 1000.0 nM
[20] = target: Insulin receptor-related protein (Homo sapiens) (UniProt P14616); conditions: Compound concentration 1000.0 nM
[21] = tested on: Hepatocyte growth factor receptor (Homo sapiens), P08581 [M1250T]; conditions: Compound concentration 1000.0 nM
[22] = target: Serine/threonine-protein kinase 17B (Homo sapiens) (UniProt O94768); conditions: Compound concentration 1000.0 nM
[23] = target: Insulin-like growth factor 1 receptor (Homo sapiens) (UniProt P08069); conditions: Compound concentration 1000.0 nM
[24] = target: Fibroblast growth factor receptor 3 (Homo sapiens) (UniProt P22607); conditions: Compound concentration 1000.0 nM
[25] = target: Serine/threonine-protein kinase 16 (Homo sapiens) (UniProt O75716); conditions: Compound concentration 1000.0 nM
[26] = target: Tyrosine-protein kinase CSK (Homo sapiens) (UniProt P41240); conditions: Compound concentration 1000.0 nM
Tyrosine-protein kinase CSK (Homo sapiens), sequence (P41240 2-450 limits assumed): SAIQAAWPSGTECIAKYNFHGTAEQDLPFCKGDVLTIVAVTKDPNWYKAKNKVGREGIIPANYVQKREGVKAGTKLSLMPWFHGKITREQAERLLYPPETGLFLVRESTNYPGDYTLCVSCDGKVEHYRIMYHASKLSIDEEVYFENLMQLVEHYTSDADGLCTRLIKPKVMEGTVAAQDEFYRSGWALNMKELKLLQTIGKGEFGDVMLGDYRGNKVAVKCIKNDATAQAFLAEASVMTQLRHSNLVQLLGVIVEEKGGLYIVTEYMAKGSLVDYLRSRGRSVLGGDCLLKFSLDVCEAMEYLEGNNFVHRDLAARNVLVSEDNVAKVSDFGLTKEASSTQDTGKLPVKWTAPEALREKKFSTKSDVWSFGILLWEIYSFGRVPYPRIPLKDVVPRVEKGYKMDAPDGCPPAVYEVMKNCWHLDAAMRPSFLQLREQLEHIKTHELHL

[27] = target: Cyclin-dependent kinase 16 (Homo sapiens) (UniProt Q00536); conditions: Compound concentration 1000.0 nM
[28] = target: Phosphatidylinositol 5-phosphate 4-kinase type-2 gamma (Homo sapiens) (UniProt Q8TBX8); conditions: Compound concentration 1000.0 nM
[29] = target: Serine/threonine-protein kinase Sgk3 (Homo sapiens) (UniProt Q96BR1); conditions: Compound concentration 1000.0 nM
Serine/threonine-protein kinase Sgk3 (Homo sapiens), sequence (Q96BR1 whole entry): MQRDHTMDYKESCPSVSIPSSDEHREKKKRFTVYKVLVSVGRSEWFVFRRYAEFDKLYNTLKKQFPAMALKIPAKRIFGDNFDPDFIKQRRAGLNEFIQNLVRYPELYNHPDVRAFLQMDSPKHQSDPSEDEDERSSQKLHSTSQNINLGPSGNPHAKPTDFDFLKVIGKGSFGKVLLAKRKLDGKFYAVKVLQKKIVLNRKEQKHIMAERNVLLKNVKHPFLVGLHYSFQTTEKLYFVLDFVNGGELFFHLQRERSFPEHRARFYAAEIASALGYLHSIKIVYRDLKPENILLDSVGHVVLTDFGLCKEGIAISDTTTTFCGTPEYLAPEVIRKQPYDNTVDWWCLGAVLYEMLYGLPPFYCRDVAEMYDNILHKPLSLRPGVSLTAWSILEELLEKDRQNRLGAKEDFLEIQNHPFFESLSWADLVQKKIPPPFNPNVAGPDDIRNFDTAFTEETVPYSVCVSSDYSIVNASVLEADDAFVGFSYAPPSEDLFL

[30] = target: Serine/threonine-protein kinase 33 (Homo sapiens) (UniProt Q9BYT3); conditions: Compound concentration 1000.0 nM
[31] = target: Cytoplasmic tyrosine-protein kinase BMX (Homo sapiens) (UniProt P51813); conditions: Compound concentration 1000.0 nM
[32] = target: Dual specificity protein kinase CLK4 (Homo sapiens) (UniProt Q9HAZ1); conditions: Compound concentration 1000.0 nM
[33] = target: Mitogen-activated protein kinase kinase kinase 10 (Homo sapiens) (UniProt Q02779); conditions: Compound concentration 1000.0 nM
[34] = target: Dual specificity mitogen-activated protein kinase kinase 6 (Homo sapiens) (UniProt P52564); conditions: Compound concentration 1000.0 nM
[35] = target: Dual specificity mitogen-activated protein kinase kinase 3 (Homo sapiens) (UniProt P46734); conditions: Compound concentration 1000.0 nM
[36] = target: Serine/threonine-protein kinase BRSK2 (Homo sapiens) (UniProt Q8IWQ3); conditions: Compound concentration 1000.0 nM
[37] = tested on: Tyrosine-protein kinase ABL1 (Homo sapiens), P00519 [Q252H]; conditions: Compound concentration 1000.0 nM
[38] = target: Serine/threonine-protein kinase PknB (Mycobacterium tuberculosis) (UniProt P9WI81); conditions: Compound concentration 1000.0 nM
[39] = target: Muscle, skeletal receptor tyrosine-protein kinase (Homo sapiens) (UniProt O15146); conditions: Compound concentration 1000.0 nM
[40] = target: Tyrosine-protein kinase ABL1 (Homo sapiens) (UniProt P00519); conditions: Compound concentration 1000.0 nM
[41] = target: Mitogen-activated protein kinase kinase kinase 20 (Homo sapiens) (UniProt Q9NYL2); conditions: Compound concentration 1000.0 nM
[42] = target: Calcium/calmodulin-dependent protein kinase type II subunit alpha (Homo sapiens) (UniProt Q9UQM7); conditions: Compound concentration 1000.0 nM
Calcium/calmodulin-dependent protein kinase type II subunit alpha (Homo sapiens), sequence (Q9UQM7 whole entry): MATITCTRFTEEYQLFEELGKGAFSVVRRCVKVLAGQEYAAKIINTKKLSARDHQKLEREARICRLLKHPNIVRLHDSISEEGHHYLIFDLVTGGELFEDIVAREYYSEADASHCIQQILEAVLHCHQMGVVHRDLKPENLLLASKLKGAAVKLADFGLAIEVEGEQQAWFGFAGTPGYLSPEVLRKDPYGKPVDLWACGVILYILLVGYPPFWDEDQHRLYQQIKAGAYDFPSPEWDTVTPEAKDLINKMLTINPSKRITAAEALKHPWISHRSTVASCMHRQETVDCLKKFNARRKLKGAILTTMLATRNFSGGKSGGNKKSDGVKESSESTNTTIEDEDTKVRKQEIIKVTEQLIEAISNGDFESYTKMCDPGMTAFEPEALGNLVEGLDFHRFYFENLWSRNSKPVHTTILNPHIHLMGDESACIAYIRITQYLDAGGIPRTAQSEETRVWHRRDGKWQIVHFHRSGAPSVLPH

[43] = target: Fibroblast growth factor receptor 2 (Homo sapiens) (UniProt P21802); conditions: Compound concentration 1000.0 nM
[44] = target: Ankyrin repeat and protein kinase domain-containing protein 1 (Homo sapiens) (UniProt Q8NFD2); conditions: Compound concentration 1000.0 nM

Sigma intracellular receptor 2 (Homo sapiens), sequence (Q5BJF2 whole entry): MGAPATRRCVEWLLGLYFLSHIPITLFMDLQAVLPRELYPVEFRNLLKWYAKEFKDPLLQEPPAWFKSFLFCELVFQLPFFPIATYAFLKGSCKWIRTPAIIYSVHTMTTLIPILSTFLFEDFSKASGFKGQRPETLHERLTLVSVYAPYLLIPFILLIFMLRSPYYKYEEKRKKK

O=C(NC[C@@H]1[C@H]2CN(C(=O)OCc3cc(C(F)(F)F)cc(C(F)(F)F)c3)C[C@@H]12)c1ccc2[nH]nnc2c1 [BI 2545]
inactive: residual activity [1] 100% | residual activity [2] 72% | inhibition [3] 44.9% | residual activity [4] 100% | residual activity [5] 100% | residual activity [6] 74% | inhibition [7] 41.5% | residual activity [8] 88% | residual activity [9] 100% | residual activity [10] 95% | residual activity [11] 100% | residual activity [12] 79% | residual activity [13] 82% | residual activity [14] 100% | residual activity [15] 100% | residual activity [16] 69% | residual activity [17] 91% | residual activity [18] 100% | residual activity [19] 100% | residual activity [20] 83% | residual activity [21] 100% | residual activity [22] 91% | residual activity [23] 100% | residual activity [24] 82% | residual activity [25] 100% | residual activity [26] 96% | residual activity [27] 100% | residual activity [28] 100% | residual activity [29] 84% | residual activity [30] 84% | residual activity [31] 81% | residual activity [32] 98% | residual activity [33] 83% | residual activity [34] 72% | residual activity [35] 93% | residual activity [36] 96% | residual activity [37] 100% | residual activity [38] 80% | residual activity [39] 77% | residual activity [40] 87% | residual activity [41] 86% | residual activity [42] 91% | residual activity [43] 100% | residual activity [44] 73%

Cc1nccc(COC(=O)N2C[C@@H]3[C@@H](CNC(=O)c4ccc5[nH]nnc5c4)[C@@H]3C2)n1 [BI 3017]
inactive: residual activity [1] 82% | residual activity [2] 94% | inhibition [3] -2.9% | residual activity [4] 96% | residual activity [5] 95% | residual activity [6] 92% | inhibition [7] 31.1% | residual activity [8] 96% | residual activity [9] 100% | residual activity [10] 100% | residual activity [11] 97% | residual activity [12] 98% | residual activity [13] 90% | residual activity [14] 79% | residual activity [15] 81% | residual activity [16] 96% | residual activity [17] 90% | residual activity [18] 92% | residual activity [19] 87% | residual activity [20] 100% | residual activity [21] 100% | residual activity [22] 85% | residual activity [23] 93% | residual activity [24] 93% | residual activity [25] 80% | residual activity [26] 99% | residual activity [27] 78% | residual activity [28] 100% | residual activity [29] 100% | residual activity [30] 93% | residual activity [31] 88% | residual activity [32] 97% | residual activity [33] 85% | residual activity [34] 100% | residual activity [35] 84% | residual activity [36] 86% | residual activity [37] 93% | residual activity [38] 100% | residual activity [39] 100% | residual activity [40] 91% | residual activity [41] 90% | residual activity [42] 65% | residual activity [43] 78% | residual activity [44] 100%
